Source: EP0583976A2, “Gastroprotective complexes with cyclodextrin” (Bristol-Myers Squibb Company, priority 1992, dated 1994)

Columns and labels:
[1] = test system: beagles; experiment: Endoscopic scoring of aspirin-induced gastric irritation in beagles (scale 0 to 7), percent protection; type: in vivo; settings: oral, with 975 mg aspirin (ASA), antacid about 15 mEq where present; endoscopy at two and four hours; versus Control A (ASA alone)
Experimental: (§1) The product obtained above was tested as follows: 10 beagles were fasted overnight. At zero time, the stomach of each animal was endoscopically examined to assure a normal mucosa. Encapsulated compositions containing about 15 mEq MgO in the freshly prepared MgO-CD complex and 975 mg aspirin (ASA) were administered orally and flushed with 50 ml water.
At two and four hours after administration of the encapsulated composition, the stomachs of the animals were endoscopically reexamined for gastric irritation. Irritation was measured according to a scale of 0 to 7, wherein zero was the condition of the mucosa for a normal stomach and a value of 7 represents massive hemorrhagic damage.
Three control tests were also conducted. In Control A the animals were administered 975 mg ASA. In Control B the animals were administered 6.27 mg α-CD and 975 aspirin and in Control C the animals were administered 15 mEq MgO and 975 aspirin.
(§2) wherein n is the number of animals, % Protection is the difference in irritation scores (on the scale of 0 to 7) between Control A and the MgO-CD complex divided by the irritation score for Control A multiplied by 100, and pH is the pH of the antrum fluid sample. The complex of the present invention is seen to have provided a substantial increase in percent protection coupled with a marked increase in pH over the controls.

[2] = pH of gastric fluid sample obtained from the antrum after dosing; type: in vivo, beagles; settings: oral, with 975 mg aspirin (ASA), antacid about 15 mEq where present
Experimental: as §1
In addition, a sample of gastric fluid was obtained from the antrum, and its general appearance noted and its pH measured.
as §2

Row | Compound | % Protection [1] [%] | pH [2]
1 | [OH][Al]([OH])[OH] [Al(OH)₃] | 10.8 ± 4.6 | 4.72 ± 0.85
2 | O=C(O)O [MgCO₃] | 2.1 ± 6.1 | 3.33 ± 0.81
3 | CC(=O)Oc1ccccc1C(=O)O [Control A, aspirin] | 0 | 3.74 ± 0.44
4 | CaCO₃ | 3.0 ± 5 | 4.17 ± 0.90
